Test results reported in patent US10544130B2, “Metallo-beta-lactamase inhibitors” (priority 2015, dated 2020).

Tested on: Serratia marcescens expressing IMP-1 (CL5741)
Assay type: cell-based
Details: with imipenem 1 μg/ml; 95% inhibition of bacterial growth
Procedure: Antibiotic Potentiation Activity: Determination of Synergistic Concentration
The bacterial strains tested included the clinical strains Escherichia coli expressing NDM-1 (CLB30005, CLB30016), Serratia marcescens expressing IMP-1 (CL5741), and Klebsiella pneumoniae expressing VIM-1 (IHMA599644). Inhibitor activity was measured in the presence and absence of imipenem in a 384-well microplate.
The clinical strains CLB30016, CL5741 and IHMA599644 were grown on trypticase soy agar containing 5% sheep's blood. The bacteria on agar plates were incubated at 35° C. with humidity overnight. The following day, individual colonies from each clinical strain were picked and resuspended in 5 ml saline to attain an OD600 of 0.14, 0.11, 0.15 and 0.13, for CLB30016, CL5741 and IHMA599644, respectively. These were further diluted 1:100 into 1.1× CAMHB and used to inoculate the test wells as described below.
Imipenem in 10 mM 3-(N-morpholino)propanesulfonic acid (MOPS, pH 7) was stored in single use aliquots at −80° C. […] On the day of the assay, 4 μl of antibiotic was added to 45 ul of bacteria followed by 1 μl of test compound and mixed by pipetting and with an orbital shaker. The concentration of antibiotic used in the assay was 1 μg/ml. Microplates were covered and incubated at 35° C. for 22 hours to 24 hours. At the end of the incubation, absorbance was determined using a spectrophotometer.

Point of comparison: Nc1ccc(-c2ccc(S(=O)(=O)NC3CC(N)C3)c(S(N)(=O)=O)c2-c2nn[nH]n2)cn1 [Example 483, N1-((1R,3R)-3-aminocyclobutyl)-4-(6-aminopyridin-3-yl)-3-(2H-tetrazol-5-yl)benzene-1,2-disulfonamide], “Serratia marcescens (IMP-1) MITC95” value 0.7813 µM. Against it:
- Nc1ccc(-c2ccc(S(=O)(=O)N[C@H]3CNC[C@H]3O)c(S(N)(=O)=O)c2-c2nn[nH]n2)cn1 [Example 410, 4-(6-aminopyridin-3-yl)-N^1-((3S,4R)-4-hydroxypyrrolidin-3-yl)-3-(2H-tetrazol-5-yl)benzene-1,2-disulfonamide] — the same, 0.7813 µM
- Nc1ccc(-c2ccc(S(=O)(=O)N[C@H]3CNC[C@H]3N)c(S(N)(=O)=O)c2-c2nn[nH]n2)cn1 [Example 413, 4-(6-aminopyridin-3-yl)-N^1-((3S,4R)-4-aminopyrrolidin-3-yl)-3-(2H-tetrazol-5-yl)benzene-1,2-disulfonamide] — 2-fold higher, 1.563 µM
- Nc1ccc(-c2ccc(S(=O)(=O)N[C@H]3CN[C@H](CO)C3)c(S(N)(=O)=O)c2-c2nn[nH]n2)cn1 [Example 411, 4-(6-aminopyridin-3-yl)-N^1-((3R,5S)-5-(hydroxymethyl)pyrrolidin-3-yl)-3-(2H-tetrazol-5-yl)benzene-1,2-disulfonamide] — 2-fold higher, 1.563 µM
- Nc1ccc2cccc(-c3ccc(S(=O)(=O)N[C@@H]4CCNC4)c(S(N)(=O)=O)c3-c3nn[nH]n3)c2n1 [Example 286, (R)-4-(2-aminoquinolin-8-yl)-N1-(pyrrolidin-3-yl)-3-(2H-tetrazol-5-yl)benzene-1,2-disulfonamide] — the same, 0.7813 µM
- C[C@H](N)CNS(=O)(=O)c1ccc(-c2ccc(N)nc2)c(-c2nn[nH]n2)c1S(N)(=O)=O [Example 479, (S)—N1-(2-aminopropyl)-4-(6-aminopyridin-3-yl)-3-(2H-tetrazol-5-yl) benzene-1,2-disulfonamide] — the same, 0.7813 µM
- Nc1ncc(-c2ccc(S(=O)(=O)N[C@@H]3CCNC3)c(S(N)(=O)=O)c2-c2nn[nH]n2)s1 [Example 284, (R)-4-(2-aminothiazol-5-yl)-N1-(pyrrolidin-3-yl)-3-(2H-tetrazol-5-yl)benzene-1,2-disulfonamide] — the same, 0.7813 µM
- NCCNS(=O)(=O)c1ccc(-c2ccnc(CN)c2)c(-c2nn[nH]n2)c1S(N)(=O)=O [Example 461, N1-(2-Aminoethyl)-4-(2-(aminomethyl)pyridin-4-yl)-3-(2H-tetrazol-5-yl)benzene-1,2-disulfonamide] — 4-fold higher, 3.125 µM
- NS(=O)(=O)c1c(S(=O)(=O)NC[C@H]2CNCCN2)ccc(-c2cccc3[nH]cnc23)c1-c1nn[nH]n1 [Example 481, (R)-4-(1H-benzo[d]imidazol-4-yl)-N1-(piperazin-2-ylmethyl)-3-(1H-tetrazol-5-yl)benzene-1,2-disulfonamide] — 2-fold higher, 1.563 µM
- NCCCNS(=O)(=O)c1ccc(-c2cc(F)cc3[nH]c(N)nc23)c(-c2nn[nH]n2)c1S(N)(=O)=O [Example 402, 4-(2-amino-6-fluoro-1H-benzo[d]imidazol-4-yl)-N^1-(3-aminopropyl)-3-(2H-tetrazol-5-yl)benzene-1,2-disulfonamide] — the same, 0.7813 µM
- Nc1ccc(-c2ccc(S(=O)(=O)NC[C@@H]3CCNC3)c(S(N)(=O)=O)c2-c2nn[nH]n2)cn1 [Example 491, (R)-4-(6-aminopyridin-3-yl)-N1-(pyrrolidin-3-ylmethyl)-3-(2H-tetrazol-5-yl)benzene-1,2-disulfonamide] — the same, 0.7813 µM
- NCCNS(=O)(=O)c1ccc(-c2ccc3sc(CN)nc3c2)c(-c2nn[nH]n2)c1S(N)(=O)=O [Example 476, N1-(2-aminoethyl)-4-(2-(aminomethyl)benzo[d]thiazol-5-yl)-3-(2H-tetrazol-5-yl)benzene-1,2-disulfonamide] — the same, 0.7813 µM
- NC[C@H](CO)NS(=O)(=O)c1ccc(-c2cccc3nc(N)[nH]c23)c(-c2nn[nH]n2)c1S(N)(=O)=O [Example 427, (R)-4-(2-amino-1H-benzo[d]imidazol-4-yl)-N^1-(1-amino-3-hydroxypropan-2-yl)-3-(1H-tetrazol-5-yl)benzene-1,2-disulfonamide] — the same, 0.7813 µM
- CN(CCN)S(=O)(=O)c1ccc(-c2cccc3[nH]c(N)nc23)c(-c2nn[nH]n2)c1S(N)(=O)=O [Example 449, 4-(2-amino-1H-benzo[d]imidazol-4-yl)-N^1-(2-aminoethyl)-N^1-methyl-3-(2H-tetrazol-5-yl)benzene-1,2-disulfonamide] — 2-fold higher, 1.563 µM
- C[C@H](CN)NS(=O)(=O)c1ccc(-c2ccc(N)nc2)c(-c2nn[nH]n2)c1S(N)(=O)=O [Example 393, (R)—N^1-(1-aminopropan-2-yl)-4-(6-aminopyridin-3-yl)-3-(2H-tetrazol-5-yl)benzene-1,2-disulfonamide] — within 1.5-fold, 1.042 µM
- Cc1cc(-c2ccc(S(=O)(=O)NC[C@@H](O)CN)c(S(N)(=O)=O)c2-c2nn[nH]n2)cnc1N [Example 468, (S)-N1-(3-amino-2-hydroxypropyl)-4-(6-amino-5-methylpyridin-3-yl)-3-(2H-tetrazol-5-yl)benzene-1,2-disulfonamide] — the same, 0.7813 µM
- Nc1nc(-c2cccc(-c3ccc(S(=O)(=O)N[C@@H]4CCNC4)c(S(N)(=O)=O)c3-c3nn[nH]n3)c2)c[nH]1 [Example 428, (R)-3′-(2-amino-1H-imidazol-4-yl)-N^4-(pyrrolidin-3-yl)-2-(2H-tetrazol-5-yl)-[1,1′-biphenyl]-3,4-disulfonamide] — the same, 0.7813 µM
- C[C@@H](N)CNS(=O)(=O)c1ccc(-c2ccc3nccn3c2)c(-c2nn[nH]n2)c1S(N)(=O)=O [Example 423, (R)-N^1-(2-aminopropyl)-4-(imidazo[1,2-a]pyridin-6-yl)-3-(2H-tetrazol-5-yl)benzene-1,2-disulfonamide] — the same, 0.7813 µM
- Nc1ccc(-c2ccc(S(=O)(=O)N3CCNCC3)c(S(N)(=O)=O)c2-c2nn[nH]n2)cn1 [Example 485, 3-(6-aminopyridin-3-yl)-6-(piperazin-1-ylsulfonyl)-2-(2H-tetrazol-5-yl)benzenesulfonamide] — the same, 0.7813 µM

Same assay, conditions: with imipenem 1 μg/ml; 95% inhibition of bacterial growth; CL5741

Point of comparison: Nc1ccc(-c2ccc(S(=O)(=O)NCC3(O)CNC3)c(S(N)(=O)=O)c2-c2nn[nH]n2)cn1 [Example 495, 4-(6-aminopyridin-3-yl)-N1-((3-hydroxyazetidin-3-yl)methyl)-3-(2H-tetrazol-5-yl)benzene-1,2-disulfonamide], “Serratia marcescens (IMP-1) MITC95” value 0.7813 µM. Against it:
- Cl.Cl.NCCCNS(=O)(=O)c1ccc(-c2ccc(N)nc2)c(-c2nn[nH]n2)c1S(N)(=O)=O [Example 496, N1-(3-aminopropyl)-4-(6-aminopyridin-3-yl)-3-(2H-tetrazol-5-yl)benzene-1,2-disulfonamide hydrogen chloride] — the same, 0.7813 µM
- CC1(NS(=O)(=O)c2ccc(-c3ccc(N)nc3)c(-c3nn[nH]n3)c2S(N)(=O)=O)CNC1.Cl.Cl [Example 497, 4-(6-aminopyridin-3-yl)-1-N-(3-methylazetidin-3-yl)-3-(2H-1,2,3,4-tetrazol-5-yl)benzene-1,2-disulfonamide hydrogen chloride] — the same, 0.7813 µM
